Test results from patent US10975056B2 (GlaxoSmithKline Intellectual Property Development Limited, priority 2016, dated 2021).
Several values for one entry are separate records, joined by “and”; a condition that tells them apart may be missing. Equal values may be shown once. Where a name gives a salt, the structure may show the parent alone. Read-outs that look alike come from different tables or passages of the source.

Columns and labels:
[1] = test system: erythroid progenitor cells (EPCs); assay: Fetal hemoglobin (HbF) ELISA in day 7 erythroid progenitor cells; format: cell-based, human; conditions: Homo sapiens, Erythroid progenitor cell, HbF ELISA, day 7 EPCs, 5 days; read-out: EPC ELISA (pEC50 category) (converted);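 further: for fetal hemoglobin induction normalized to vehicle-treated cells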
Method in brief: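 Read-out was OD450 from an HRP/TMB sandwich ELISA on lysates, normalized to DMSO-only control wells. Thawed day 7 EPCs from human marrow CD34+ cells had been treated for 5 days at 37° C with Compound A, 22 concentrations […].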

[2] = molecular target: DNMT1 (Homo sapiens, UniProt P26358); assay: DNMT1 biochemical activity, breaklight assay and/or SPA assay
Chain of DNMT1 (P26358 whole entry, looked up): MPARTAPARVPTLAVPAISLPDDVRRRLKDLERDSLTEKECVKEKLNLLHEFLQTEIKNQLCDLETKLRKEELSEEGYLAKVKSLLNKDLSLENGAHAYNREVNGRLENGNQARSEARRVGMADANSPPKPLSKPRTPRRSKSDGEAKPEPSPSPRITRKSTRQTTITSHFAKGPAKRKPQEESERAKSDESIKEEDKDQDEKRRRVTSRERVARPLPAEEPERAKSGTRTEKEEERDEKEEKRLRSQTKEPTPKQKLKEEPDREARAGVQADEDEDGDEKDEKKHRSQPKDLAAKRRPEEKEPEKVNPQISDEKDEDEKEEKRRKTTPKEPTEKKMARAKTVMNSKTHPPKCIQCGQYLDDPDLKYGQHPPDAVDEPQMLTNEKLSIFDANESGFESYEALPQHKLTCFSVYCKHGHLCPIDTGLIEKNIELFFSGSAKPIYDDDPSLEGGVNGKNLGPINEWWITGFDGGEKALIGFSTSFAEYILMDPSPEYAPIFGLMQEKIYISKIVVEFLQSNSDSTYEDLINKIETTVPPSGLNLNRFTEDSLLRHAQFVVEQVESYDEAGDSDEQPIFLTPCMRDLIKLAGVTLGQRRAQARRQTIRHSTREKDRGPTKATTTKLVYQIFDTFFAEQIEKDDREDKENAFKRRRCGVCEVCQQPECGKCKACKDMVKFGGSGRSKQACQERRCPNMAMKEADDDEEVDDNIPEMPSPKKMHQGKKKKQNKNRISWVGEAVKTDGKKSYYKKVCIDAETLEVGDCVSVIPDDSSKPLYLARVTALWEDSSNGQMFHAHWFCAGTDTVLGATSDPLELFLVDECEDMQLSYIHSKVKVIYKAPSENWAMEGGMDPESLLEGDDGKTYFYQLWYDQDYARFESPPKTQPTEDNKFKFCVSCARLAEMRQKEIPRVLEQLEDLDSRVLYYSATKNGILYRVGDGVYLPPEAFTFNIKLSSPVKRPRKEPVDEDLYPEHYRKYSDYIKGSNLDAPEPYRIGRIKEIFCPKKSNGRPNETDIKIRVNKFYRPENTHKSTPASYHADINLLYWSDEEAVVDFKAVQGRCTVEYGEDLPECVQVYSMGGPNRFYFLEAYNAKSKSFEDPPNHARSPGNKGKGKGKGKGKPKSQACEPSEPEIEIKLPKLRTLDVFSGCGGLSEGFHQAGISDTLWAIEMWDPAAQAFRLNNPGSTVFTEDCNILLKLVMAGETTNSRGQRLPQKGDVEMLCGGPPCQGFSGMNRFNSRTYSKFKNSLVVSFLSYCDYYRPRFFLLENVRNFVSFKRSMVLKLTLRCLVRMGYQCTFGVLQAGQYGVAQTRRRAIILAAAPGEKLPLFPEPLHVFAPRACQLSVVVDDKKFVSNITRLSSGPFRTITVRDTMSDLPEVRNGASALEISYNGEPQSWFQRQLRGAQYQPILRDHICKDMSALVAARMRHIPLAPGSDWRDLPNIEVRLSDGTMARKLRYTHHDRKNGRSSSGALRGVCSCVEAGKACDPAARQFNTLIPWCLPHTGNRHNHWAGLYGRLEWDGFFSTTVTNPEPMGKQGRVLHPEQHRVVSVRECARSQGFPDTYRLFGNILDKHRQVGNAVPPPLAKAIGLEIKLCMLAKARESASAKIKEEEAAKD

[3] = binned activity in either the breaklight or the SPA assay, read-out: DNMT1 BioChemical (pIC50 category) (converted)
[4] = binned activity in either the breaklight or the SPA assay
[5] = breaklight assay and/or SPA assay, repeated experimental runs, read-out: average pIC50 against DNMT1 (converted)

Row | EC50 [1] [nM] | IC50 [2, 3] [nM] | DNMT1 BioChemical (pIC50 category) [2, 4] | IC50 [2, 5] | SMILES
1 | 1000 to 31600 | 316 to 1000 |  |  | CCc1c(C#N)c(SC(C(N)=O)c2ccccc2)nc(N2CCN(N)CC2)c1C#N (stereo not shown) [Example 234, 2-((6-(4-Aminopiperazin-1-yl)-3,5-dicyano-4-ethylpyridin-2-yl)thio)-2-phenylacetamide, Trifluoroacetic Acid Salt]
2 | 316 to 1000 | 316 to 1000 |  |  | CCc1c(C#N)c(SCC(N)=O)nc(SC(C(N)=O)c2ccccc2)c1C#N (stereo not shown) [Example 235, 2-((6-((2-Amino-2-oxoethyl)thio)-3,5-dicyano-4-ethylpyridin-2-yl)thio)-2-phenylacetamide]
3 | > 31600 |  | D (Category D: ≥6.5) |  | CCc1c(C#N)c(SC(C(N)=O)c2ccccc2)nc(N2Cc3cn[nH]c3C2)c1C#N (stereo not shown) [Example 236, 2-((3,5-Dicyano-4-ethyl-6-(pyrrolo[3,4-c]pyrazol-5(1H,4H,6H)-yl)pyridin-2-yl)thio)-2-phenylacetamide]
4 | 1000 to 31600 | 316 to 1000 |  |  | CCc1c(C#N)c(SC(C(N)=O)c2ccccc2)nc(N2CCC(O)(CO)CC2)c1C#N (stereo not shown) [Example 240, 2-((3,5-Dicyano-4-ethyl-6-(4-hydroxy-4-(hydroxymethyl)piperidin-1-yl)pyridin-2-yl)thio)-2-phenylacetamide]
5 | 1000 to 31600 | 316 to 1000 |  |  | CCc1c(C#N)c(SC(C(N)=O)c2ccccc2)nc(N2CCC3(CC2)COC(=O)N3)c1C#N (stereo not shown) [Example 241, 2-((3,5-Dicyano-4-ethyl-6-(2-oxo-3-oxa-1,8-diazaspiro[4.5]decan-8-yl)pyridin-2-yl)thio)-2-phenylacetamide]
6 | 1000 to 31600 | 316 to 1000 |  |  | CCc1c(C#N)c(SC(C(N)=O)c2ccccc2)nc(N2CCC(N3C(=O)CNC3=O)CC2)c1C#N (stereo not shown) [Example 250, 2-((3,5-Dicyano-6-(4-(2,5-dioxoimidazolidin-1-yl)piperidin-1-yl)-4-ethylpyridin-2-yl)thio)-2-phenylacetamide]
7 | 1000 to 31600 | 1000 to 31600 |  |  | CCc1c(C#N)c(SC(C(N)=O)c2ccccc2)nc(N2CCC(N)(C(N)=O)CC2)c1C#N (stereo not shown) [Example 251]
8 | < 316 |  | D (Category D: ≥6.5) |  | CCc1c(C#N)c(SC(C(N)=O)c2ccccc2)nc(N2CCC(N3C(=O)CCC3=O)CC2)c1C#N (stereo not shown) [Example 252, 2-((3,5-Dicyano-6-(4-(2,5-dioxopyrrolidin-1-yl)piperidin-1-yl)-4-ethylpyridin-2-yl)thio)-2-phenylacetamide]
9 | 1000 to 31600 | 316 to 1000 |  |  | CCc1c(C#N)c(SC(C(N)=O)c2ccccc2)nc(N2CCC3(CC2)CNC(=O)O3)c1C#N (stereo not shown) [Example 256, 2-((3,5-Dicyano-4-ethyl6-(2-oxo-1-oxa-3,8-diazaspiro[4.5]decan-8-yl)pyridin-2-yl)thio)-2-phenylacetamide]
10 | 1000 to 31600 | 316 to 1000 |  |  | CCc1c(C#N)c(SC(C(N)=O)c2ccccc2)nc(N2CCC(O)(C(N)=O)CC2)c1C#N (stereo not shown) [Example 258, 1-(6-((2-Amino-2-oxo-1-phenylethyl)thio)-3,5-dicyano-4-ethylpyridin-2-yl)-4-hydroxy piperidine-4-carboxamide]
11 | 316 to 1000 |  | D (Category D: ≥6.5) |  | CCc1c(C#N)c(SC(C(N)=O)c2ccccc2)nc(N2CC(OC(N)=O)C2)c1C#N (stereo not shown) [Example 259, 1-(6-((2-Amino-2-oxo-1-phenylethylthio-3,5-dicyano-4-ethylpyridin-2-yl)azetidin-3-yl carbamate]
12 | 1000 to 31600 | 316 to 1000 |  |  | CCc1c(C#N)c(SC(C(N)=O)c2ccccc2)nc(N2CCC(N3C(=O)COC3=O)CC2)c1C#N (stereo not shown) [Example 260, 2-((3,5-Dicyano-6-(4-(2,4-dioxooxazolidin-3-yl)piperidin-1-yl)-4-ethylpyridin-2-yl)thio)-2-phenylacetamide]
13 | 1000 to 31600 |  | D (Category D: ≥6.5) |  | CCc1c(C#N)c(SC(C(N)=O)c2ccccc2)nc(N2CC(CO)C2)c1C#N (stereo not shown) [Example 262, 2-((3,5-Dicyano-4-ethyl-6-(3-(hydroxymethyl)azetidin-1-yl)pyridin-2-yl)thio)-2-phenylacetamide]

Second part, the compound before the results:

Row | SMILES | EC50 [1] [nM] | IC50 [2, 3] [nM] | DNMT1 BioChemical (pIC50 category) [2, 4] | IC50 [2, 5]
14 | CCc1c(C#N)c(SC(C(N)=O)c2cccnc2F)nc(N2CCCN(C)CC2)c1C#N (stereo not shown) [Example 225] | 316 to 1000 | 1000 to 31600 |  | 
15 | CCc1c(C#N)c(SC(C(N)=O)c2ccc(F)nc2)nc(N2CCCN(C)CC2)c1C#N (stereo not shown) [Example 228] | 316 to 1000 | 1000 to 31600 |  | 
16 | CCc1c(C#N)c(SC(C(N)=O)c2ccccc2)nc(N(C)CCC(N)=O)c1C#N (stereo not shown) [Example 230, 3-((6-(2-Amino-2-oxo-1-phenylethylthio)-3,5-dicyano-4-ethylpyridin-2-yl)(methyl)amino)propanamide] | 1000 to 31600 | 316 to 1000 |  | 
17 | CCc1c(C#N)c(SC(C(N)=O)c2ccccc2)nc(N2CCC(OC3COC3)CC2)c1C#N (stereo not shown) [Example 231, 2-((3,5-Dicyano-4-ethyl-6-(4-(oxetan-3-yloxy)piperidin-1-yl)pyridin-2-yl)thio)-2-phenylacetamide] | 316 to 1000 | 316 to 1000 |  | 
18 | CCc1c(C#N)c(SC(C(N)=O)c2ccccc2)nc(N2CCC(C)(NCC(F)F)CC2)c1C#N (stereo not shown) [Example 232] | 316 to 1000 | 316 to 1000 |  | 
19 | CCc1c(C#N)c(SC(C(N)=O)c2ccc(C(F)(F)F)cc2)nc(N2CCCN(C)CC2)c1C#N (stereo not shown) [Example 233, 2-((3,5-dicyano-4-ethyl-6-(4-methyl-1,4-diazepan-1-yl)pyridin-2-yl)thio)-2-(4-(trifluoromethyl)phenyl)acetamide] | < 316 | 316 to 1000 |  | 
20 | CCc1c(C#N)c(SC(C(N)=O)c2ccc(OC)cn2)nc(N(C)C)c1C#N (stereo not shown) [Example 237, 2-((3,5-Dicyano-6-(dimethylamino)-4-ethylpyridin-2-yl)thio)-2-(5-methoxypyridin-2-yl)acetamide] | 1000 to 31600 | 316 to 1000 |  | 316 to 1000 nM and 398 nM
21 | CCc1c(C#N)c(SC(C(N)=O)c2ccc(C)cn2)nc(N(C)C)c1C#N (stereo not shown) [Example 238, 2-((3,5-Dicyano-6-(dimethylamino)-4-ethylpyridin-2-yl)thio)-2-(5-methylpyridin-2-yl)acetamide] | 1000 to 31600 |  | D (Category D: ≥6.5) | 
22 | CCc1c(C#N)c(SC(C(N)=O)c2ccnc(F)c2)nc(N2CCCN(C)CC2)c1C#N (stereo not shown) [Example 239, 2-((3,5-Dicyano-4-ethyl-6-(4-methyl-1,4-diazepan-1-yl)pyridin-2-yl)thio)-2-(2-fluoropyridin-4-yl)acetamide] | > 31600 | 1000 to 31600 |  | 
23 | CCc1c(C#N)c(SC(C(N)=O)c2ccccc2)nc(N2CCC(N)(CO)CC2)c1C#N (stereo not shown) [Example 242, 2-((6-(4-Amino-4-(hydroxymethyl)piperidin-1-yl)-3,5-dicyano-4-ethylpyridin-2-yl)thio)-2-phenylacetamide, Trifluoroacetic Acid Salt] | < 316 |  | D (Category D: ≥6.5) | 
24 | CCc1c(C#N)c(SC(C(N)=O)c2ccccc2)nc(N2CCC(O)(CN)CC2)c1C#N (stereo not shown) [Example 243, 2-((6-(4-(Aminomethyl)-4-hydroxypiperidin-1-yl)-3,5-dicyano-4-ethylpyridin-2-yl)thio)-2-phenylacetamide, Trifluoroacetic Acid Salt] | 316 to 1000 |  | D (Category D: ≥6.5) | 
25 | CCc1c(C#N)c(SC(C(N)=O)c2cccc(C(=O)c3ccccc3)c2)nc(N2CCCN(CCO)CC2)c1C#N (stereo not shown) [Example 244, 2-(3-Benzoylphenyl)-2-((3,5-dicyano-4-ethyl-6-(4-(2-hydroxyethyl)-1,4-diazepan-1-yl)pyridin-2-yl)thio)acetamide] | < 316 | 316 to 1000 |  | 
26 | CCc1c(C#N)c(SC(C(N)=O)c2ccc(C(=O)c3ccccc3)cc2)nc(N2CCCN(CCO)CC2)c1C#N (stereo not shown) [Example 245, 2-(4-Benzoylphenyl)-2-((3,5-dicyano-4-ethyl-6-(4-(2-hydroxyethyl)-1,4-diazepan-1-yl)pyridin-2-yl)thio)acetamide] | 316 to 1000 | 316 to 1000 |  | 
27 | CCc1c(C#N)c(SC(C(N)=O)c2ccnc(C)c2)nc(N2CCCN(C)CC2)c1C#N (stereo not shown) [Example 246, 2-((3,5-Dicyano-4-ethyl-6-(4-methyl-1,4-diazepan-1-yl)pyridin-2-yl)thio)-2-(2-methylpyridin-4-yl)acetamide] | > 31600 | 316 to 1000 |  | 
28 | CCc1c(C#N)c(SC(C(N)=O)c2cccc(N3CCCC3)c2)nc(N2CCCN(C)CC2)c1C#N (stereo not shown) [Example 247, 2-((3,5-Dicyano-4-ethyl-6-(4-methyl-1,4-diazepan-1-yl)pyridin-2-yl)thio)-2-(3-(pyrrolidin-1-yl)phenyl)acetamide] | 316 to 1000 | 1000 to 31600 |  | ≥ 1000 nM and 1580 nM
29 | CCc1c(C#N)c(SC(C(N)=O)c2ccncc2F)nc(N2CCCN(C)CC2)c1C#N (stereo not shown) [Example 248, 2-((3,5-Dicyano-4-ethyl-6-(4-methyl-1,4-diazepan-1-yl)pyridin-2-yl)thio)-2-(3-fluoropyridin-4-yl)acetamide] | > 31600 | 316 to 1000 |  | 
30 | CCc1c(C#N)c(SC(C(N)=O)c2cc(F)ncc2F)nc(N2CCCN(C)CC2)c1C#N (stereo not shown) [Example 249, 2-((3,5-Dicyano-4-ethyl-6-(4-methyl-1,4-diazepan-1-yl)pyridin-2-yl)thio)-2-(2,5-difluoropyridin-4-yl)acetamide] | > 31600 | 1000 to 31600 |  | 
31 | CCc1c(C#N)c(SC(C(N)=O)c2ccccc2)nc(N(C)CC(C)(O)C(N)=O)c1C#N (stereo not shown) [Example 261, 3-((6-((2-Amino-2-oxo-1-phenylethyl)thio)-3,5-dicyano-4-ethylpyridin-2-yl)(methyl)amino)-2-hydroxy-2-methylpropanamide] | 1000 to 31600 | 316 to 1000 |  | 
